According to ChEMBL document CHEMBL1136443, “Structure-activity relationship of benzo[b]thiophene-2-sulfonamide derivatives as novel human chymase inhibitors” (Bioorg Med Chem Lett, 2003):
Each block holds one compound with its values, some of them ahead of it.

What was measured:
Chymase [1] = target: T1, Chymase (Homo sapiens, UniProt P23946); test: In vitro inhibitory activity against human chymase
T1 sequence (P23946 whole entry): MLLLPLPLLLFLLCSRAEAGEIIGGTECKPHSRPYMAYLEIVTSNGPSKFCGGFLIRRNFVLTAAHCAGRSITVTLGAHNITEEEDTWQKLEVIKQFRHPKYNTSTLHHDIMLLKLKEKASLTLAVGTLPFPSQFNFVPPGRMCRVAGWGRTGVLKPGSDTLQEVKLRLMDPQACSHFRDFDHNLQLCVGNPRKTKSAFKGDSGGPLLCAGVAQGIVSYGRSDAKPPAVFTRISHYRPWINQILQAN

Chymase [2] = target: T1, Chymase; test: In vitro inhibitory activity against human chymase; NI Indicates no inhibition at 10 uM
Cathepsin G = target: T2, Cathepsin G (Homo sapiens, UniProt P08311); test: In vitro inhibitory activity against human cathepsin G
T2 sequence (P08311 whole entry): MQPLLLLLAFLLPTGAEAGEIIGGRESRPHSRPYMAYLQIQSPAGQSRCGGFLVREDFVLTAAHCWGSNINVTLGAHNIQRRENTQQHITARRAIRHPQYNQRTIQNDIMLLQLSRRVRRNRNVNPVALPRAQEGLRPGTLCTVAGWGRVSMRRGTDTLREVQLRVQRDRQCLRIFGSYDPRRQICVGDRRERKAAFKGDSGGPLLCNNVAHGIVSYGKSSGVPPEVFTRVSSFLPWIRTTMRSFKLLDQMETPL

[3] = In vitro inhibitory activity against human elastase
Rattus norvegicus = organism: Rattus norvegicus; test: Percentage of compound present in rat plasma after incubation for 60 min at 37 degree C; format: functional, organism-based

IC50 (Chymase [2]): No inhibition
Compound: Cc1c(S(=O)(=O)Nc2ccc(C#N)cc2)sc2ccc(Cl)cc12

IC50 (Chymase [1]): 594 nM
Compound: COC(=O)c1ccc(NS(=O)(=O)c2sc3ccc(Cl)cc3c2C)c(S(C)(=O)=O)c1C

IC50 (Chymase [1]): 10600 nM
Compound: CCCS(=O)(=O)c1ccc(NS(=O)(=O)c2sc3ccc(Cl)cc3c2C)cc1

IC50 (Cathepsin G): > 10000 nM
IC50 [3]: > 10000 nM
Compound: COC(=O)c1ccc(NS(=O)(=O)c2sc3ccc(Cl)cc3c2C)c(S(C)(=O)=O)c1
Stability (Rattus norvegicus): 93.9%

IC50 (Cathepsin G): > 10000 nM
IC50 [3]: > 10000 nM
Compound: CC(=O)c1ccc(NS(=O)(=O)c2sc3ccc(F)cc3c2C)c(S(C)(=O)=O)c1
Stability (Rattus norvegicus): 96.2%

IC50 (Chymase [1]): 325 nM
Compound: COC(=O)c1ccc(NS(=O)(=O)c2sc3ccc(C)cc3c2C)c(S(C)(=O)=O)c1

IC50 (Chymase [2]): No inhibition
Compound: Cc1c(S(=O)(=O)Nc2ccc([N+](=O)[O-])cc2)sc2ccc(Cl)cc12

Continued, compound first:

Compound: Cc1c(S(=O)(=O)Nc2ccc(CO)cc2S(C)(=O)=O)sc2ccc(F)cc12
IC50 (Chymase [1]): 337 nM

Compound: Cc1c(S(=O)(=O)Nc2ccc(C=O)cc2S(C)(=O)=O)sc2ccc(F)cc12
IC50 (Chymase [1]): > 1000 nM

Compound: Cc1c(S(=O)(=O)Nc2ccc(C(=O)O)cc2S(C)(=O)=O)sc2ccc(F)cc12
IC50 (Chymase [1]): > 1000 nM

Compound: COC(=O)c1ccc(NS(=O)(=O)c2sc3ccc(F)cc3c2C)c(S(C)(=O)=O)c1
IC50 (Cathepsin G): > 10000 nM
IC50 [3]: > 10000 nM
Stability (Rattus norvegicus): 74.3%

Compound: COC(=O)c1ccc(NS(=O)(=O)c2sc3ccc(Cl)cc3c2C)c(C(=O)OC)c1
IC50 (Chymase [2]): No inhibition

Compound: CCCSc1ccc(NS(=O)(=O)c2sc3ccc(Cl)cc3c2C)cc1
IC50 (Chymase [2]): No inhibition

Compound: Cc1c(S(=O)(=O)Nc2ccc(C(N)=O)cc2S(C)(=O)=O)sc2ccc(F)cc12
IC50 (Chymase [1]): > 1000 nM

Compound: COCc1ccc(NS(=O)(=O)c2sc3ccc(F)cc3c2C)c(S(C)(=O)=O)c1
IC50 (Chymase [1]): 192 nM
